Measured values from patent US20230172971A1, “ANTIBIOTIC AND ANTI-INFLAMMATORY COMPOSITIONS AND METHODS OF USE” (priority 2020, published 2023).

What was measured:
E. coli BAA-2452 = assay: H33342 bisbenzimide dye uptake assay, E. coli BAA-2452; assay type: cell-based, Escherichia coli; details: E. coli BAA-2452, 7×10^8 CFU/mL, non-lethal concentration
Protocol: Overnight culture of E. coli BAA-2452™ and K. pneumoniae BAA-2146™ were used to inoculate fresh CAMHB media for another 5 hr at 35° C. with shaking. Bacterial cells were collected by centrifugation at 6000 rpm for 40 min and resuspended in PBS. The OD600 of the cell suspension was adjusted to about 1.0 and kept at room temperature during the experiment. Aliquots (180 μL/well) of the cell suspension were transferred to a 96-well flat-bottom black plate in the format of column 1, PBS blank; column 2, untreated control cells; column 3, cells+potentiator (sub-lethal concentration). Five technical replicates of each group were conducted. Fluorescent probe Hoechst 33342 bisbenzimide (H33342) was added (20 μL) to each well with a final concentration of 5 μM. Fluorescence was read immediately after the addition of H33342 by a Tecan Infinite M20 plate reader with the excitation and emission filters of 355 and 460 nm for H33342. Fluorescence data were normalized to the emission before cells were added in the PBS control, and they were plotted against time to show the cellular uptake of H33342 over 10 min. Control experiments of dye+600-Da BPEI were unchanged from fluorescence emission values obtained with dye only.

MRSA OU11 = assay: Resazurin cell viability assay, MRSA OU11; assay type: cell-based, Staphylococcus aureus
Protocol: Cell viability assays with resazurin were performed with MRSA OU11 cells grown in TSB as similar to the procedure of cell-permeation assays until they reach a density of ˜7×10^9 CFU/mL. Then the cell culture was transferred into a 96-well plate (100 μL/well) for BPEI or polymyxin B (PmB) treatments at varied concentrations from 64-512 μg/mL. Controls of untreated and positive control of 5% bleach were also conducted. The plate was incubated at 37° C. overnight. Resazurin (50 μL; final concentration of 50 μg/mL) was then added and, after 1 hour of incubation, the fluorescence intensity was measured (λex=560 nm; λen, =590 nm).

Gram-negative bacteria = details: paradigm; cited from earlier work
Gram-positive bacteria = details: paradigm; cited from earlier work

polymyxin B
intracellular accumulation of H33342 (fluorescence) vs untreated cells (E. coli BAA-2452): increases
cell viability (resazurin) (MRSA OU11; MRSA OU11, 64 μg/mL PmB): greater cell death than 512 μg/mL 600-Da BPEI
cell viability (resazurin) (MRSA OU11; MRSA OU11, 512 μg/mL PmB): complete loss of MRSA OU11 viability
cell viability (resazurin) (MRSA OU11; MRSA OU11, ~7×10^9 CFU/mL, 64-512 μg/mL, overnight): more lethal
MIC (Gram-negative bacteria): ≤ 2 mg/L
concentration required (MIC) (Gram-positive bacteria): ≥ 32 mg/L
